Molecules are shown by their SMILES.

The test system of the test is host cell cytotoxicity, % cell control, 5% serum. In words: host cell cytotoxicity, R5 fusion assay cells, dose response, cytotoxicity control for HIV-1 antiviral lead project, CCR5-tropic fusion assay, 5% serum, set 2 (AID 504573).

By CC50 is commonly meant the concentration giving 50% cytotoxicity. Take `COc1ccccc1Cn1c(O)cc2nn(-c3nc4ccccc4s3)c(=O)c-2c1C`: the cytotoxic concentration (CC50) was 8.08 µM.

Regarding `Cc1c2c(=O)n(-c3nc4ccccc4s3)nc-2cc(O)n1Cc1ccccc1`, the CC50 is 5.4 µM.

As for `Cc1c2c(=O)n(-c3nc4ccccc4s3)nc-2cc(O)n1CCc1cccs1`, the CC50 is 5.51 µM.

As for `Cc1c2c(=O)n(-c3nc4ccccc4s3)nc-2cc(O)n1C1CC1`, the 50% cytotoxic concentration (CC50) was 4.98 µM.

As to `COc1ccc(Cn2c(O)cc3nn(-c4nc5ccccc5s4)c(=O)c-3c2C)cc1`, the CC50 is 5.15 µM.

Take `Cc1c2c(=O)n(-c3nc4ccccc4s3)nc-2cc(O)n1Cc1ccccc1Cl`: the CC50 was 4.34 µM.

With `Cc1c2c(=O)n(-c3nc4ccccc4s3)nc-2cc(O)n1Cc1cccnc1`, the CC50 is 3.89 µM.

Take `Cc1c2c(=O)n(-c3nc4ccccc4s3)nc-2cc(O)n1Cc1ccc(F)cc1`: the CC50 is 4.4 µM.

With `Cc1c2c(=O)n(-c3nc4ccccc4s3)nc-2cc(O)n1Cc1cccs1`, the CC50 is 5.94 µM.

In the case of `Cc1c2c(=O)n(-c3nc4ccccc4s3)nc-2cc(O)n1CCC(C)C`, the CC50 is 5.64 µM.

`COc1ccc(CCn2c(O)cc3nn(-c4nc5ccccc5s4)c(=O)c-3c2C)cc1`: the CC50 is 7.2 µM.

Turning to `Cc1c2c(=O)n(-c3nc4ccccc4s3)nc-2cc(O)n1CCc1ccc(O)cc1`, the half-maximal cytotoxic concentration (CC50) was 3.74 µM.

On to `Cc1c2c(=O)n(-c3nc4ccccc4s3)nc-2cc(O)n1Cc1ccncc1`, for which the CC50 was 5.07 µM.

The record behind these values is PubChem BioAssay AID504573 (Southern Research Specialized Biocontainment Screening …, 2011).
